# Results: US20250382266A1, “5-HT2A RECEPTOR LIGANDS” (Psilera Inc., priority 2022, published 2025)
# Tests used:
# 5-HT2A = 5-HT2A (Homo sapiens, UniProt P28223); assay: radioligand binding at 5-HT2A; conditions: 50 nM; radioligand [3H]ketanserin
# Protocol: (§1) In vitro pharmacological assessment of this compound (N-(2-(1H-indol-3-yl)ethyl)-2-(1H-indol-3-yl)-N-methylethan-1-amine) was performed using radioligand binding at various serotonergic and sigma receptors. The results appear in table 2 below
# Sigma 1 = Sigma 1 (Homo sapiens, UniProt Q99720); assay: radioligand binding at Sigma 1; conditions: 500 nM; radioligand [3H](+)pentazocine
# Sequence of Sigma 1 (Q99720 whole entry): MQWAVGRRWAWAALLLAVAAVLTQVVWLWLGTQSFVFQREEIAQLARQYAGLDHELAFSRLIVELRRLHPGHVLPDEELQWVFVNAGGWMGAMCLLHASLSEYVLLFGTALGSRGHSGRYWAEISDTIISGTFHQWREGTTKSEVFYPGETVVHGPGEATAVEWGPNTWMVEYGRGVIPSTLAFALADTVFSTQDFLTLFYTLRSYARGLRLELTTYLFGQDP
# Protocol: as §1
# Sigma 2 = Sigma 2 (Homo sapiens, UniProt Q5BJF2); assay: radioligand binding at Sigma 2; conditions: 500 nM; radioligand [3H]DTG + (+)pentazocine
# Sequence of Sigma 2 (Q5BJF2 whole entry): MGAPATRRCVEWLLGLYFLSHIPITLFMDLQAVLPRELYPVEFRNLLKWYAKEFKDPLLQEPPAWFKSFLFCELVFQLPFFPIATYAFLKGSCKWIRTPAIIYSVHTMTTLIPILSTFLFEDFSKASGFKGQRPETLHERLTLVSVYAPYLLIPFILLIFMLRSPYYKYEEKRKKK
# Protocol: as §1
# 5-HT2B = 5-HT2B (Homo sapiens, UniProt P41595); assay: radioligand binding at 5-HT2B; conditions: 50 nM; radioligand [3H]mesulergine
# Sequence of 5-HT2B (P41595 whole entry, species assumed): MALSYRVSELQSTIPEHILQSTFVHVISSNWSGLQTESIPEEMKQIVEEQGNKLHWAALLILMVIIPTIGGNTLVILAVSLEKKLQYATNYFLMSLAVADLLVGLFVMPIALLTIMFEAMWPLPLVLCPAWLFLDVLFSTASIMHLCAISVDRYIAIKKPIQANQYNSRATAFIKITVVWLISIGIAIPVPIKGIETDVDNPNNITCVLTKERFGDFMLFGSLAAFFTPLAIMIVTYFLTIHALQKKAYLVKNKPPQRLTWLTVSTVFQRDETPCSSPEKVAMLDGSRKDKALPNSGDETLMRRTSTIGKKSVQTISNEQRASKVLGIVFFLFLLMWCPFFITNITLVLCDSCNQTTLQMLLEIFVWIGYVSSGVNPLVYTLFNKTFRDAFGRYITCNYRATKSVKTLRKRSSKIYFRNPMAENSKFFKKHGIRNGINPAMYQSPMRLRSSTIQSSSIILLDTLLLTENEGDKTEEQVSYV
# Protocol: as §1
# 5-HT2C = biological target: T1, 5-HT2C (Homo sapiens, UniProt P28335); assay: radioligand binding at 5-HT2C; conditions: 50 nM; radioligand [3H]mesulergine
# T1 sequence (P28335 33-458): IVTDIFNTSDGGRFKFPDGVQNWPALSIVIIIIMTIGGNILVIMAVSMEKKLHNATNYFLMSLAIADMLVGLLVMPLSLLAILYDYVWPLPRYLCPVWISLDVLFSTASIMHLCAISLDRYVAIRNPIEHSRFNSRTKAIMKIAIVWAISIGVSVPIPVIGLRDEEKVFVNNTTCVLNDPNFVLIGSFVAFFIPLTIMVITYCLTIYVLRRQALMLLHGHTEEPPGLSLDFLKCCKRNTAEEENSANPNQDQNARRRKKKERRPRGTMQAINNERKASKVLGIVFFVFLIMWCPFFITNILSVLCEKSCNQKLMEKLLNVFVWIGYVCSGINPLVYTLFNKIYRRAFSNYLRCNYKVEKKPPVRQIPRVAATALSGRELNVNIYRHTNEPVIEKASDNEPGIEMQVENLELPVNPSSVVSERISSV
# Protocol: as §1
# 5-HT7 = 5-HT7 (Homo sapiens, UniProt P34969); assay: radioligand binding at 5-HT7; conditions: 50 nM; radioligand [3H]LSD
# Sequence of 5-HT7 (P34969 whole entry, species assumed): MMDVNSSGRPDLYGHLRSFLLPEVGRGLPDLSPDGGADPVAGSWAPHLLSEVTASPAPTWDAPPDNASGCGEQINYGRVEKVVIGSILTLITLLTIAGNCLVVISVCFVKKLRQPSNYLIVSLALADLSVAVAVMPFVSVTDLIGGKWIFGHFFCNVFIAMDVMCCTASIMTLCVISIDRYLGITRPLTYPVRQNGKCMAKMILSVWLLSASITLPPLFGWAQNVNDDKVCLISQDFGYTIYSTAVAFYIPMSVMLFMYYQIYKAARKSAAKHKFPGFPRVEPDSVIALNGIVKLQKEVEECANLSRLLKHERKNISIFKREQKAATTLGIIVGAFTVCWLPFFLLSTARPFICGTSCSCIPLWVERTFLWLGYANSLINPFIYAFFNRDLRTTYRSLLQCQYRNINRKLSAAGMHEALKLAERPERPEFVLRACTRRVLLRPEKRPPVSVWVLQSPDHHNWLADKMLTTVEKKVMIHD
# Protocol: as §1
# 5-HT6 = 5-HT6 (Homo sapiens, UniProt P50406); assay: radioligand binding at 5-HT6; conditions: 50 nM; radioligand [3H]LSD
# Sequence of 5-HT6 (P50406 whole entry, species assumed): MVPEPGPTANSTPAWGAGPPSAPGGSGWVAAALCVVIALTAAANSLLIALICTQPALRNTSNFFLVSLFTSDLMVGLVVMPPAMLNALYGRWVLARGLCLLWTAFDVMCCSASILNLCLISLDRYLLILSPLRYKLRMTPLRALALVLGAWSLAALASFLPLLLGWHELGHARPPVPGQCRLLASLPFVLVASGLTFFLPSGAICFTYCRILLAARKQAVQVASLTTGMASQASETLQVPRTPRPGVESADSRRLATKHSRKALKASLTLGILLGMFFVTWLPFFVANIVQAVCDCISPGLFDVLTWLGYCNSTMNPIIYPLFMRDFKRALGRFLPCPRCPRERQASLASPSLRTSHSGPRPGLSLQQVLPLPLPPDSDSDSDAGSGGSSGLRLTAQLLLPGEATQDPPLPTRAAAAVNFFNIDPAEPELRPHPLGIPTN
# Protocol: as §1
# 5-HT1A = biological target: T2, 5-HT1A (Homo sapiens, UniProt P08908); assay: radioligand binding at 5-HT1A; conditions: 50 nM; radioligand [3H]8-OH-DPAT
# T2 sequence (P08908 1-422): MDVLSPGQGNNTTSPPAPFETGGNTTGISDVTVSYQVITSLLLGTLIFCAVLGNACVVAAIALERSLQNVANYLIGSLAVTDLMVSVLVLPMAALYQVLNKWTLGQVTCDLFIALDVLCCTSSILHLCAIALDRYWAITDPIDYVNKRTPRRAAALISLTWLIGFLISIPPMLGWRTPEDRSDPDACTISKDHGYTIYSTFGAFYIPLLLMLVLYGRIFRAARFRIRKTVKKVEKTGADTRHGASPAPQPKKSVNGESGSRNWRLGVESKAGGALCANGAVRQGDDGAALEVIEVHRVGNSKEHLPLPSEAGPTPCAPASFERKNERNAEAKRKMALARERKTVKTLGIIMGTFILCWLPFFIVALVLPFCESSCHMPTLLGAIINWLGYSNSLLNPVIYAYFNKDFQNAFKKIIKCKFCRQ
# Protocol: as §1
# Sequence of 5-HT2A (P28223 whole entry): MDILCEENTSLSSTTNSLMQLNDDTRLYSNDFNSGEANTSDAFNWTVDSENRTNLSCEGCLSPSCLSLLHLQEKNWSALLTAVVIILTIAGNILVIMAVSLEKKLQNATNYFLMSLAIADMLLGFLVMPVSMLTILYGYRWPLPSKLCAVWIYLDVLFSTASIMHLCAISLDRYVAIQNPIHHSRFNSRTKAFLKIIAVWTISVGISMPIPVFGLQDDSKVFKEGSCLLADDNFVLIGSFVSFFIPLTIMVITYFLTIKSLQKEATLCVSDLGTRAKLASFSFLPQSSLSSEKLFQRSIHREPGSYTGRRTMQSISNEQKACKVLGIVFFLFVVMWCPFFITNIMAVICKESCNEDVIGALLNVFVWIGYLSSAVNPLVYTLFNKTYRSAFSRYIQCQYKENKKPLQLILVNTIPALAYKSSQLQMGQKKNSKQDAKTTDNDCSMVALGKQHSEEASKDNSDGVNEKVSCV
structure (smiles),measurement,setting,value
"CN(CCc1c[nH]c2ccccc12)CCc1c[nH]c2ccccc12 [Example 1, N-(2-(1H-indol-3-yl)ethyl)-2-(1H-indol-3-yl)-N-methylethan-1-amine]",inhibition at 0.05 µM,5-HT2A,82.7%
same,inhibition at 0.5 µM,Sigma 1,21.7%
same,inhibition at 0.5 µM,Sigma 2,26.1%
same,inhibition at 0.05 µM,5-HT2B,96.8%
same,inhibition at 0.05 µM,5-HT2C,72.8%
same,inhibition at 0.05 µM,5-HT7,79.7%
same,inhibition at 0.05 µM,5-HT6,26.3%
same,inhibition at 0.05 µM,5-HT1A,70.9%
